# According to patent publication US20200267980A1, “Herbicidally Active Pyridyl-/Pyrimidyl-Pyrimidine Derivatives” (Syngenta Participations AG, priority 2017, published 2020):
# Assays:
# Assay type in all cases: in vivo
# Avena fatua (AVEFA) [1] = assay: Post-emergence herbicidal activity, glasshouse pot test; settings: 1000 g/ha, post-emergence spray after 8 days cultivation, evaluated after 13 days, damage score 0-5
# Experimental: (§1) Seeds of a variety of test species were sown in standard soil in pots: Triticum aestivium (TRZAW), Avena fatua (AVEFA), Alopecurus myosuroides (ALOMY), Echinochloa crus-galli (ECHCG), Lolium perenne (LOLPE), and Setaria faberi (SETFA). After 8 days cultivation (post-emergence) under controlled conditions in a glasshouse (at 24/16° C., day/night; 14 hours light; 65% humidity), the plants were sprayed with an aqueous spray solution derived from the formulation of the technical active ingredient in acetone/water (50:50) solution containing 0.5% Tween 20 (polyoxyethelyene sorbitan monolaurate, CAS RN 9005-64-5). The test plants were then grown in a glasshouse under controlled conditions (at 24/16° C., day/night; 14 hours light; 65% humidity) and watered twice daily. After 13 days, the test was evaluated (5=total damage to plant; 0=no damage to plant).
# Setaria faberi (SETFA) [2] = assay: as above; design: key: 5=total damage to plant; 0=no damage to plant; settings: 1000 g/ha, post-emergence spray after 8 days cultivation, evaluated after 13 days, damage score 0-5
# Experimental: as §1
# [3] = test system: Alopecurus myosuroides (ALOMY); assay: as above; design: key: 5=total damage to plant; 0=no damage to plant; settings: 1000 g/ha, post-emergence spray after 8 days cultivation, evaluated after 13 days, damage score 0-5
# Experimental: as §1
# Lolium perenne (LOLPE) [4] = assay: as above; design: key: 5=total damage to plant; 0=no damage to plant; settings: 1000 g/ha, post-emergence spray after 8 days cultivation, evaluated after 13 days, damage score 0-5
# Experimental: as §1
# [5] = test system: Triticum aestivium (TRZAW); assay: as above; design: key: 5=total damage to plant; 0=no damage to plant; settings: 1000 g/ha, post-emergence spray after 8 days cultivation, evaluated after 13 days, damage score 0-5
# Experimental: as §1
# [6] = test system: Echinochloa crus-galli (ECHCG); assay: as above; design: key: 5=total damage to plant; 0=no damage to plant; settings: 1000 g/ha, post-emergence spray after 8 days cultivation, evaluated after 13 days, damage score 0-5
# Experimental: as §1
# Setaria faberi (SETFA) [7] = assay: Pre-emergence herbicidal activity, glasshouse pot test; design: key: 5=total damage to plant; 0=no damage to plant; settings: 1000 g/ha, pre-emergence spray, evaluated after 13 days, damage score 0-5
# Experimental: as §1, with “After” for “After 8 days”, “for one day (pre-emergence)” for “(post-emergence)”
# [8] = test system: Alopecurus myosuroides (ALOMY); assay: as above; design: key: 5=total damage to plant; 0=no damage to plant; settings: 1000 g/ha, pre-emergence spray, evaluated after 13 days, damage score 0-5
# Experimental: as §1, with “After” for “After 8 days”, “for one day (pre-emergence)” for “(post-emergence)”
# Lolium perenne (LOLPE) [9] = assay: as above; design: key: 5=total damage to plant; 0=no damage to plant; settings: 1000 g/ha, pre-emergence spray, evaluated after 13 days, damage score 0-5
# Experimental: as §1, with “After” for “After 8 days”, “for one day (pre-emergence)” for “(post-emergence)”
# [10] = test system: Triticum aestivium (TRZAW); assay: as above; design: key: 5=total damage to plant; 0=no damage to plant; settings: 1000 g/ha, pre-emergence spray, evaluated after 13 days, damage score 0-5
# Experimental: as §1, with “After” for “After 8 days”, “for one day (pre-emergence)” for “(post-emergence)”
# Avena fatua (AVEFA) [11] = assay: as above; design: key: 5=total damage to plant; 0=no damage to plant; settings: 1000 g/ha, pre-emergence spray, evaluated after 13 days, damage score 0-5
# Experimental: as §1, with “After” for “After 8 days”, “for one day (pre-emergence)” for “(post-emergence)”
# [12] = test system: Echinochloa crus-galli (ECHCG); assay: as above; design: key: 5=total damage to plant; 0=no damage to plant; settings: 1000 g/ha, pre-emergence spray, evaluated after 13 days, damage score 0-5
# Experimental: as §1, with “After” for “After 8 days”, “for one day (pre-emergence)” for “(post-emergence)”
Compound,"Control of weed species after post-emergence application, AVEFA (Avena fatua (AVEFA) [1])","Control of weed species after post-emergence application, SETFA (Setaria faberi (SETFA) [2])","Control of weed species after post-emergence application, ALOMY [3]","Control of weed species after post-emergence application, LOLPE (Lolium perenne (LOLPE) [4])","Control of weed species after post-emergence application, TRAZW [5]","Control of weed species after post-emergence application, ECHCG [6]","Control of weed species after pre-emergence application, SETFA (Setaria faberi (SETFA) [7])","Control of weed species after pre-emergence application, ALOMY [8]","Control of weed species after pre-emergence application, LOLPE (Lolium perenne (LOLPE) [9])","Control of weed species after pre-emergence application, TRAZW [10]","Control of weed species after pre-emergence application, AVEFA (Avena fatua (AVEFA) [11])","Control of weed species after pre-emergence application, ECHCG [12]"
O=C(Nc1cnc(-c2cncc(F)c2)nc1C(F)(F)F)C(Cl)(Cl)Cl [Compound F5],2,5,2,3,1,4,5,0,0,0,1,3
CC(C)(C)C(=O)Nc1cnc(-c2cncc(F)c2)nc1C(F)(F)F [Compound F6],3,4,1,2,1,5,3,0,1,0,2,4
N#CCN(C(=O)C1CC1)c1cnc(-c2cncc(F)c2)nc1C(F)(F)F [Compound F30],2,5,1,2,1,4,4,0,2,1,2,3
O=C(CCC1CCCC1)Nc1cnc(-c2cncc(F)c2)nc1C(F)(F)F [Compound F19],2,4,0,1,0,4,4,0,1,1,1,4
CCCC(=O)Nc1cnc(-c2cncc(F)c2)nc1C(F)(F)F [Compound F33],3,5,1,2,1,4,4,0,0,1,1,4
CC(C)C(=O)Nc1cnc(-c2cncnc2)nc1C(F)(F)F [Compound F32],3,4,1,2,1,4,4,1,1,1,1,4
O=C1CCCCN1c1cnc(-c2cncc(F)c2)nc1C(F)(F)F [Compound F29],3,5,0,1,0,4,3,1,1,1,0,2
CC(=O)Nc1cnc(-c2cncnc2)nc1C(F)(F)F [Compound F31],3,4,1,2,1,4,4,1,1,1,2,4
CCC(=O)Nc1cnc(-c2cncc(F)c2)nc1C(F)(F)F [Compound F4],4,4,0,2,1,4,4,1,0,0,3,3
O=C(Nc1cnc(-c2cncc(F)c2)nc1C(F)(F)F)C1CCC1 [Compound F26],4,5,1,2,1,5,4,0,0,1,1,3
O=C(CC(F)(F)F)Nc1cnc(-c2cncc(F)c2)nc1C(F)(F)F [Compound F23],3,5,0,2,0,5,5,0,0,0,0,3
